We go through 20 compounds from ChEMBL document CHEMBL2346588, “Design, synthesis, and biological activity of diaryl ether inhibitors of Toxoplasma gondii enoyl reductase” (Bioorg Med Chem Lett, 2013).

The test system of one data set is HFF. Description: Cytotoxicity against HFF assessed as inhibition of [3H]-thymidine incorporation after 24 hrs by […] assay. The conditions noted are these: human. Format: cell-based. For orientation: Dividing cells build labelled thymidine or BrdU into new DNA.
The test system of data set [1] is Toxoplasma gondii. Description: Antiparasitic activity against Toxoplasma gondii type 1 RH expressing YFP infected in HFF assessed as inhibition of [3H]-uracil incorporation after 72 hrs by liquid scintillation counting. The class given is functional.
In data set [2] the target is T1, Enoyl-acyl carrier reductase (Toxoplasma gondii) (UniProt Q6UCJ9).
T1 sequence (whole entry): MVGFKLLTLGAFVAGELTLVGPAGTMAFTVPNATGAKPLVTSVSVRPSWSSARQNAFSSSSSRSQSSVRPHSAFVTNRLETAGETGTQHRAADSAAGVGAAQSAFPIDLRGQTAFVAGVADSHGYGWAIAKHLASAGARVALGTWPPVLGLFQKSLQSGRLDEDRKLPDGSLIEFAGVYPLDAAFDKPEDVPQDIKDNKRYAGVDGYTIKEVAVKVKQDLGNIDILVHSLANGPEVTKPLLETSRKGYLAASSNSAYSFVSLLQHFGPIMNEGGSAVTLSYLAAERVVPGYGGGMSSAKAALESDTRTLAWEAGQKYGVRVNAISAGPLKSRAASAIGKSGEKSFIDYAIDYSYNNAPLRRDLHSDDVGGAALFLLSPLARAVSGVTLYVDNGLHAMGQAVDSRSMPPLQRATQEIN
Nature of the data set: Inhibition of Toxoplasma gondii enoyl reductase assessed as conversion of trans-2-acyl-ACP to acyl-ACP at 1 uM.

Data set [3] concerns the target T2, Enoyl-acyl carrier reductase (Toxoplasma gondii, UniProt Q6UCJ9).
T2 sequence (Q6UCJ9 whole entry): T1 sequence (whole entry)
Nature of the data set: Inhibition of Toxoplasma gondii enoyl reductase assessed as conversion of trans-2-acyl-ACP to acyl-ACP.

The subject of another data set is Mus musculus. Nature of the data set: Toxicity in Toxoplasma gondii infected BALB/c mouse assessed mortality at 75 mg/kg, ip qd for 5 days measured 7 day after infection. Further details: dose 75 mg/kg, route intraperitoneal. Format: organism-based. The settings on record: in vivo, 168 h.
Data set [4] deals with Toxoplasma gondii. Nature of the data set: Antiparasitic activity against Toxoplasma gondii infected in BALB/c mouse assessed as reduction of parasite burden at 50 mg/kg, ip qd for 5 days. Further details: dose 50 mg/kg. The class given is functional, organism-based.
For data set [5], the system named is Plasmodium falciparum. Description: Antimalarial activity against Plasmodium falciparum D6 after 24 hrs by SYBR Green I based fluorescence assay. Format: functional, organism-based. The settings on record: D6, 24 h.
The test system of data set [6] is Plasmodium falciparum. Description: Antimalarial activity against chloroquine-resistant Plasmodium falciparum TM91C235 after 24 hrs by SYBR Green I based fluorescence assay. The class given is functional, organism-based. The conditions noted are these: TM91C235, 24 h.
Data set [7] deals with Toxoplasma gondii. Nature of the data set: Antiparasitic activity against Toxoplasma gondii infected in BALB/c mouse assessed as reduction of parasite burden at 25 mg/kg, ip qd for 5 days. The class given is functional, organism-based. More on the design: dose 25 mg/kg.

In brackets after ≈: the same amount, converted by molar mass. Activity calls are given as the source filed them. No cut-off for these calls is given here.

Consider `O=C(c1ccc(Oc2ccc(Cl)cc2O)s1)N1CCNCC1`, for which the INH in the data set on HFF was > 10 µM. For the same compound, in the data set on Toxoplasma gondii [1], the MIC50 (usually an inhibitory concentration at the 50% level, which refers to growth in some studies and to a panel of isolates in others) is > 10 µM. The inhibition – broadly, the percentage by which the read-out fell short of the control – in data set [2] was 60%.
Turning to `Cc1cc(NC(=O)c2ccc(Oc3ccc(Cl)cc3O)o2)no1`, the INH in the data set with HFF was > 10 µM. Also, in [3], the IC50 (as a rule, the concentration at which inhibition is half-maximal) worked out at 58 nM. For the same compound, the MIC50 in the data set with Toxoplasma gondii [1] is 10 µM (≈ 3.35 µg/mL). Also, in data set [2], the inhibition came to 90%.
For `Oc1cc(Cl)ccc1Oc1ccc2ccccc2c1`, the INH in the data set with HFF was > 10 µM. In addition, the half-maximal inhibitory concentration (IC50) in data set [3] came to 41 nM. The MIC50 in the data set with Toxoplasma gondii [1] worked out at 10 µM (≈ 2.71 µg/mL). In addition, the inhibition in data set [2] worked out at 91%.
For `CC(=O)N1CCN(c2ccc(Oc3ccc(Cl)cc3O)cc2)CC1`, the INH in the data set with HFF was > 10 µM. Further, the IC50 in [3] was 225 nM; in the data set on Plasmodium falciparum [5], > 10 µg/mL; with Plasmodium falciparum [6], > 10 µg/mL. In addition, in the data set on Toxoplasma gondii [1], the MIC50 was determined as 1.5 µM (≈ 0.52 µg/mL). Further, the Activity entry in the data set with Mus musculus is “Toxic”. Further, the result with Toxoplasma gondii [4] was inactive. The inhibition in [2] amounted to 81%.
Consider `Oc1cc(Cl)ccc1Oc1ccc(C(F)(F)F)cc1Cl`, for which the INH in the data set on HFF is > 10 µM. In data set [3], the IC50 worked out at 30 nM. The MIC50 in the data set with Toxoplasma gondii [1] stood at 4 µM (≈ 1.29 µg/mL). For the same compound, the inhibition in data set [2] amounted to 95%.
With `CCNC(=O)c1ccc(Oc2ccc(Cl)cc2O)s1`, in the data set with HFF, the INH stood at 10 µM. The inhibition in data set [2] turned out to be 75%.
For `Oc1cc(Cl)ccc1Oc1ccc(Cl)cc1Cl` [TRICLOSAN], the outcome in the data set on Toxoplasma gondii [7] was Active. In the data set on HFF, the INH was > 10 µM. Besides, the MIC50 in the data set on Toxoplasma gondii [1] was 5 µM (≈ 1.45 µg/mL).
For `O=S(=O)(c1ccc(Oc2ccc(Cl)cc2O)cc1)N1CCCC1`, in the data set on HFF, the INH is > 10 µM. In addition, the MIC50 in the data set with Toxoplasma gondii [1] amounted to 10 µM (≈ 3.54 µg/mL). Further, the inhibition in data set [2] is 78%.
On to `CC(=O)N1CCN(Cc2ccc(Oc3ccc(Cl)cc3O)s2)CC1`, for which, in the data set on HFF, the INH was > 10 µM. The IC50 in data set [3] turned out to be 965 nM. For the same compound, in the data set with Toxoplasma gondii [1], the MIC50 amounted to 5 µM (≈ 1.83 µg/mL). Moreover, in [2], the inhibition worked out at 73%.
`CN1CCN(Cc2ccc(Oc3ccc(Cl)cc3O)cc2)CC1`: in the data set with HFF, the INH is > 10 µM. Moreover, in the data set with Toxoplasma gondii [1], the MIC50 is > 10 µM. The inhibition in data set [2] amounted to 32%.
Consider `CNC(=O)c1ccc(Oc2ccc(Cl)cc2O)o1`, for which the INH in the data set on HFF is > 10 µM. For the same compound, the MIC50 in the data set with Toxoplasma gondii [1] was > 10 µM. In addition, the inhibition in data set [2] stood at 46%.
In the case of `O=C(O)c1ccc(Oc2ccc(Cl)cc2O)o1`, in the data set with HFF, the INH was > 10 µM. The MIC50 in the data set on Toxoplasma gondii [1] was > 10 µM. The inhibition in data set [2] is 79%.
As to `Oc1cc(Cl)ccc1Oc1ccc2ncccc2c1`, the INH in the data set on HFF was > 10 µM. The IC50 in data set [3] came to 135 nM. For the same compound, the MIC50 with Toxoplasma gondii [1] was 7.5 µM (≈ 2.04 µg/mL). Further, the inhibition in [2] stood at 87%.
Consider `Oc1cc(Cl)ccc1Oc1ccc(N2CCOCC2)cc1`, for which, in the data set with HFF, the INH is > 10 µM. Also, the MIC50 in the data set on Toxoplasma gondii [1] is > 10 µM. Moreover, the inhibition in [2] was determined as 74%.
For `CC(=O)N1CCN(C(=O)c2ccc(Oc3ccc(Cl)cc3O)o2)CC1`, in the data set with HFF, the INH was > 10 µM. The MIC50 in the data set with Toxoplasma gondii [1] was > 10 µM. Also, in data set [2], the inhibition is 45%.
On to `O=S(=O)(c1ccc(Oc2ccc(Cl)cc2O)cc1)N1CCCCC1`, for which the INH with HFF was > 10 µM. Besides, the MIC50 in the data set on Toxoplasma gondii [1] is 10 µM (≈ 3.68 µg/mL). For the same compound, in [2], the inhibition came out at 81%.
Take `CN1CCN(c2ccc(Oc3ccc(Cl)cc3O)cc2)CC1`: in the data set with HFF, the INH is > 10 µM. Further, the inhibition in [2] came out at 25%.
As to `Cn1cc(C(=O)Nc2ccc(Cl)cc2O)c(C(F)(F)F)n1`, in the data set with HFF, the INH was > 10 µM. Further, the MIC50 in the data set with Toxoplasma gondii [1] was > 10 µM. Also, in [2], the inhibition amounted to 27%.
For `O=C(O)c1ccc(Oc2ccc(Cl)cc2O)s1`, in the data set with HFF, the INH is > 10 µM. In addition, the MIC50 with Toxoplasma gondii [1] came out at 10 µM (≈ 2.71 µg/mL). The inhibition in [2] was found to be 48%.
Take `CC(C)(C)OC(=O)N1CCN(C(=O)c2ccc(Oc3ccc(Cl)cc3O)s2)CC1`: the INH in the data set with HFF is > 10 µM. In addition, in the data set with Toxoplasma gondii [1], the MIC50 was > 10 µM. In addition, the inhibition in [2] amounted to 76%.
